{"source": "patent US20020091086A1", "about": "“Peptides that block viral infectivity and methods of use thereof” (priority 1999, published 2002)", "key": {"[1]": {"tested_on": "HIV-2", "assay": "HIV-2 infectivity assay in H9 cells, RT activity in supernatant", "type": "cell-based"}, "[2]": {"tested_on": "HIV-1", "settings": "100 μM, H9 cells", "source_text": "(§1) In this example, the methods that were used to analyze the ability of various tripeptides to inhibit HIV-1, HIV-2, and SIV replication are disclosed. In Experiments 1 and 2, approximately 200,000 H9 cells were infected with HIV-1, HIV-2 or SIV at 25 TCID50 to test the inhibitory effect of the following synthesized tripeptides LKA-NH2, ILK-NH2, GPQ-NH2, GHK-NH2, GKG-NH2, ACQ-NH2, CQG-NH2, ARV-NH2, KAR-NH2, HKA-NH2, GAT-NH2, KAL-NH2, and GPG-NH2. Accordingly, the H9 cells were resuspended with or without the different peptides (approximately 100 μM) in 1 ml of RPMI 1640 medium supplemented with 10% (v/v) heat-inactivated fetal bovine serum (FBS), penicillin (100 u/ml), and streptomycin (100 u/ml), all available through GIBCO, and Polybrene (2 μg/ml), available through Sigma. Thereafter, viruses were added at 25 TCID50 in a volume of 20-30μl. Cells were incubated with virus at 37° C. for 1 hr then pelleted at 170×g for 7 minutes. The cells were then washed three times in RPMI medium without peptides at room temperature and pelleted at 170×g for 7 minutes, as above. After the final wash, the cells were resuspended in RPMI culture medium containing the peptides in a 24-well plate (Costar corporation) and were kept at 37° C. in 5% CO2 with humidity.\n(§2) Culture supernatants were collected and analyzed when the medium was changed at 4, 7, 10, and 14 days post infection. To monitor the replication of virus, reverse transcriptase (RT) activity in the supernatants was assayed using a commercially available Lenti-RT activity kit. (Cavidi Tech, Uppsala, Sweden). The amount of RT was determined with the aid of a regression line of standards. The results are presented as absorbance values (OD) and higher absorbance indicates a higher protein concentration and greater viral infection. Syncytium formation was also monitored by microscopic examination."}, "[3]": {"tested_on": "HIV-1", "settings": "H9 cells; for Day 10 RT HIV-1 (1:5): supernatant diluted 5-fold", "source_text": "as §1, §2\nIn Experiment 3, (Table 4), approximately 200,000 H9 cells were infected with HIV-1, HIV-2 or SIV at 25 TCID50 to test the inhibitory effect of different concentrations of peptides GPG-NH2, GKG-NH2 and CQG-NH2 and combinations of these peptides (the indicated concentration corresponds to the concentration of each tripeptide). As above, H9 cells were resuspended with or without the different peptides at varying concentrations in 1 ml of RPMI 1640 medium supplemented with 10% (v/v) heat-inactivated fetal bovine serum (FBS), penicillin (100 u/ml), and streptomycin (100 u/ml), and Polybrene (2 μg/ml). Thereafter, viruses were added at 25 TCID50 in a volume of 20-30 μl. Cells were incubated with the indicated virus at 37° C. for 1 hr then pelleted at 170×g for 7 minutes. The cells were then washed three times in RPMI medium without peptides at room temperature and pelleted at 170×g for 7 minutes, as above. After the final wash, the cells were resuspended in RPMI culture medium containing the peptides in a 24-well plate (Costar corporation) and kept at 37° C. in 5% CO2 with humidity.\nCulture supernatants were collected when the medium was changed at 4, 7, and 11 days post infection. As above, the replication of each virus was monitored by detecting reverse transcriptase (RT) activity in the supernatants using the Lenti-RT activity kit. (Cavidi Tech). The amount of RT was determined with the aid of a regression line of standards. The results are presented as absorbance values (OD) and higher absorbance indicates a higher protein concentration and greater viral infection.\nIn Experiment 4, (Table 5) approximately 200,000 H9 cells were infected with HIV-1 at 25 TCID50 to test the inhibitory effect of different concentrations of peptides GPG-NH2, GKG-NH2 and CQG-NH2 and combinations of these peptides (the indicated concentration corresponds to the total concentration of tripeptide)."}, "[4]": {"tested_on": "SIV", "assay": "SIV infectivity assay in H9 cells, RT activity in supernatant", "type": "cell-based"}, "[5]": {"settings": "Experiment 3, 5 μM (of each tripeptide)"}, "[6]": {"settings": "Experiment 3, 20 μM (of each tripeptide)"}, "[7]": {"settings": "Experiment 4, 5 μM (total concentration of tripeptide)"}, "[8]": {"settings": "Experiment 4, 15 μM (total concentration of tripeptide)"}}, "note": "Read-outs that look alike come from different tables or passages of the source. Peptide text beside a SMILES is read from it."}
{"compound": "NCC(=O)N1CCC[C@H]1C(=O)NCC(N)=O", "note": "[GPG-NH2, glycyl-prolyl-glycine amide] (H-Gly-Pro-Gly-NH2)", "values": [{"measurement": "Day 7 RT HIV-2", "setting": "[1]; Experiment 1, 100 μM", "value": 0.735, "unit": "OD"}, {"measurement": "Day 10 RT HIV-2", "setting": "[1]; Experiment 1, 100 μM", "value": 0.145, "unit": "OD"}, {"measurement": "Day 7 RT HIV-2", "setting": "[1]; Experiment 2, 100 μM", "value": 0.093, "unit": "OD"}, {"measurement": "Day 10 RT HIV-2", "setting": "[1]; Experiment 2, 100 μM", "value": 0.575, "unit": "OD"}, {"measurement": "Day 7 RT HIV-2", "setting": "[1]; [5]", "value": 1.735, "unit": "OD"}, {"measurement": "Day 10 RT HIV-2", "setting": "[1]; [5]", "value": 2.329, "unit": "OD"}, {"measurement": "Day 7 RT HIV-2", "setting": "[1]; [6]", "value": 0.252, "unit": "OD"}, {"measurement": "Day 10 RT HIV-2", "setting": "[1]; [6]", "value": 1.305, "unit": "OD"}, {"measurement": "HIV-2 infection, result in words", "setting": "[1]; summary of Experiments 1-3", "value": "inhibit or prevent HIV-2 and SIV infection"}, {"measurement": "HIV-1 Syncytia", "setting": "[2]; Experiment 1", "value": "neg"}, {"measurement": "HIV-1 Syncytia", "setting": "[2]; Experiment 2", "value": "neg"}, {"measurement": "Day 7 RT HIV-1", "setting": "[3]; Experiment 1, 100 μM", "value": 0.068, "unit": "OD"}, {"measurement": "Day 10 RT HIV-1", "setting": "[3]; Experiment 1, 100 μM", "value": 0.074, "unit": "OD"}, {"measurement": "Day 7 RT HIV-1", "setting": "[3]; Experiment 2, 100 μM", "value": 0.090, "unit": "OD"}, {"measurement": "Day 10 RT HIV-1", "setting": "[3]; Experiment 2, 100 μM", "value": 0.143, "unit": "OD"}, {"measurement": "Day 7 RT HIV-1", "setting": "[3]; [5]", "value": 1.527, "unit": "OD"}, {"measurement": "Day 10 RT HIV-1", "setting": "[3]; [5]", "value": 2.398, "unit": "OD"}, {"measurement": "Day 7 RT HIV-1", "setting": "[3]; [6]", "value": 0.239, "unit": "OD"}, {"measurement": "Day 10 RT HIV-1", "setting": "[3]; [6]", "value": 0.692, "unit": "OD"}, {"measurement": "Day 7 RT HIV-1", "setting": "[3]; [7]", "value": 2.970, "unit": "OD"}, {"measurement": "Day 10 RT HIV-1 (1:5)", "setting": "[3]; [7]", "value": 1.107, "unit": "OD"}, {"measurement": "Day 7 RT HIV-1", "setting": "[3]; [8]", "value": 0.894, "unit": "OD"}, {"measurement": "Day 10 RT HIV-1 (1:5)", "setting": "[3]; [8]", "value": 0.095, "unit": "OD"}, {"measurement": "Day 7 RT HIV-1", "setting": "[3]; Experiment 4, 45 μM", "value": 0.177, "unit": "OD"}, {"measurement": "Day 10 RT HIV-1 (1:5)", "setting": "[3]; Experiment 4, 45 μM", "value": 0.034, "unit": "OD"}, {"measurement": "Day 7 RT HIV-1", "setting": "[3]; Experiment 4, 100 μM", "value": 0.150, "unit": "OD"}, {"measurement": "Day 10 RT HIV-1 (1:5)", "setting": "[3]; Experiment 4, 100 μM", "value": 0.033, "unit": "OD"}, {"measurement": "HIV-1 infection, result in words", "setting": "[3]; summary of Experiments 1-5", "value": "inhibited and/or prevented HIV-1 infection"}, {"measurement": "Day 7 RT SIV", "setting": "[4]; Experiment 1, 100 μM", "value": 0.138, "unit": "OD"}, {"measurement": "Day 10 RT SIV", "setting": "[4]; Experiment 1, 100 μM", "value": 0.103, "unit": "OD"}, {"measurement": "Day 7 RT SIV", "setting": "[4]; Experiment 2, 100 μM", "value": 0.067, "unit": "OD"}, {"measurement": "Day 10 RT SIV", "setting": "[4]; Experiment 2, 100 μM", "value": 0.139, "unit": "OD"}, {"measurement": "Day 7 RT SIV", "setting": "[4]; [5]", "value": 0.753, "unit": "OD"}, {"measurement": "Day 10 RT SIV", "setting": "[4]; [5]", "value": 2.201, "unit": "OD"}, {"measurement": "Day 7 RT SIV", "setting": "[4]; [6]", "value": 0.197, "unit": "OD"}, {"measurement": "Day 10 RT SIV", "setting": "[4]; [6]", "value": 0.779, "unit": "OD"}, {"measurement": "SIV infection, result in words", "setting": "[4]; summary of Experiments 1-3", "value": "inhibit or prevent HIV-2 and SIV infection"}]}
